# Active and inactive are the calls of the source. The rule behind the calls is not given here.
# Key:
# [1] = Dissociation constant, pKa of compound; assay type: physicochemical
# Mus musculus [2] = assay: Analgesic activity in OX1R knock out mouse assessed as increase in wheel running activity at 40 ug/kg; assay type: functional, organism-based; details: dose 40.0 µg/kg
# Mus musculus [3] = assay: Analgesic activity in OX1R knock out mouse assessed as increase in wheel running activity at 4 to 10 ug/kg; assay type: functional, organism-based; details: dose microg/kg 4-10
# [4] = Toxicity in mouse assessed as conditioned place aversion at 10 to 40 microg/kg, sc; details: in vivo, dose 10-40 µg/kg
# [5] = Toxicity in dual OX1/2R knock out mouse assessed as increase in conditioned place aversion at 10 to 40 microg/kg, sc; details: in vivo, dose 10-40 µg/kg
smiles,measurement,setting,value
CN(C(=O)/C=C/c1ccoc1)[C@@H]1CC[C@@]2(O)[C@H]3Cc4ccc(O)c5c4[C@@]2(CCN3CC2CC2)[C@H]1O5 [NALFURAFINE],pKa,[1],9.4
same,Activity,Mus musculus [2],Active
same,Activity,Mus musculus [3],inactive
same,Activity,[4],Non-Toxic
same,Activity,[5],Toxic
